From ChEMBL document CHEMBL4725415, “First Structure-Activity Relationship Study of Potent BLT2 Agonists as Potential Wound-Healing Promoters” (J Med Chem, 2020)
≈ marks a conversion by molar mass, not a printed value.

Assays:
physchem = settings: PBS buffer with 1% dimethyl sulfoxide, pH 7.4
in vitro = settings: Sprague-Dawley, rat, liver microsomes

## CCCCC(=O)N(Cc1ccc(-c2ccccc2C(=O)O)cc1)c1ccccc1
physchem
  solubility: 250 µM (≈ 96.9 µg/mL)
In vitro
  remaining at 1 h, 1000 µM: 66%
